Assay results from BigSolDB 2.1.

With `C[n+]1ccn(CCOCCn2cc[n+](C)c2)c1.F[P-](F)(F)(F)(F)F.F[P-](F)(F)(F)(F)F` the solubility (mole fraction) (in acetone, 283 K) was 0.0599, the solubility (mole fraction) (in acetone, 288 K) was 0.061 and the solubility (mole fraction) (in acetone, 293 K) was 0.0621. For the same compound, the solubility (mole fraction) (in acetone, 298 K) was 0.0631, the solubility (mole fraction) (in acetone, 303 K) was 0.0641 and the solubility (mole fraction) (in acetonitrile, 283 K) was 0.0726. It also gave a solubility (mole fraction) (in acetonitrile, 288 K) of 0.0749, a solubility (mole fraction) (in acetonitrile, 293 K) of 0.0775 and a solubility (mole fraction) (in acetonitrile, 298 K) of 0.0802. The solubility (mole fraction) (in acetonitrile, 303 K) was 0.0834, the solubility (mole fraction) (in ethanol, 283 K) was 3.2e-05 and the solubility (mole fraction) (in ethanol, 288 K) was 3.8e-05. The solubility (mole fraction) (in ethanol, 293 K) was 4.7e-05, the solubility (mole fraction) (in ethanol, 298 K) was 5.6e-05 and the solubility (mole fraction) (in ethanol, 303 K) was 6.9e-05. The solubility (mole fraction) (in methanol, 283 K) was 0.000171, the solubility (mole fraction) (in methanol, 288 K) was 0.000234 and the solubility (mole fraction) (in methanol, 293 K) was 0.000298. It also gave a solubility (mole fraction) (in methanol, 298 K) of 0.000376, a solubility (mole fraction) (in methanol, 303 K) of 0.000464 and a solubility (mole fraction) (in water, 283 K) of 0.000118. The solubility (mole fraction) (in water, 288 K) was 0.000157, the solubility (mole fraction) (in water, 293 K) was 0.00021 and the solubility (mole fraction) (in water, 298 K) was 0.000271. The solubility (mole fraction) (in water, 303 K) was 0.000345.
